Values quoted from earlier work as cited in article PMC9186412, “Rational Framework for the Design of Trp- and Arg-Rich Peptide Antibiotics Against Multidrug-Resistant Bacteria” (Frontiers in Microbiology, 2022).
Read-outs that look alike come from different tables or passages of the source.

System: CDC AR isolates
Parameters: key: S (green), susceptible; I (blue), intermediate; R (red), resistant
Details: data provided by the CDC, ref CDC, cited from earlier work
Excerpt: Supplement Table_3.XLSX, sheet "CDC AR isolates profiles" | column: G(-) strains

[1] = Acinetobacter baumannii AB273, CDC AR isolate
[2] = Acinetobacter baumannii AB274, CDC AR isolate
[3] = Acinetobacter baumannii AB275, CDC AR isolate
[4] = Acinetobacter baumannii AB276, CDC AR isolate
[5] = Enterobacter cloacae E62, CDC AR isolate
[6] = Enterobacter cloacae E544, CDC AR isolate
[7] = Enterobacter cloacae E545, CDC AR isolate
[8] = Enterobacter cloacae E546, CDC AR isolate
[9] = Escherichia coli EC541, CDC AR isolate
[10] = Escherichia coli EC543, CDC AR isolate
[11] = Escherichia coli EC544, CDC AR isolate
[12] = Escherichia coli EC549, CDC AR isolate
[13] = Klebsiella pneumoniae KP542, CDC AR isolate
[14] = Klebsiella pneumoniae KP548, CDC AR isolate
[15] = Klebsiella pneumoniae KP550, CDC AR isolate
[16] = Klebsiella pneumoniae KP552, CDC AR isolate
[17] = Pseudomonas aeruginosa PA229, CDC AR isolate
[18] = Pseudomonas aeruginosa PA230, CDC AR isolate
[19] = Pseudomonas aeruginosa PA231, CDC AR isolate
[20] = Pseudomonas aeruginosa PA232, CDC AR isolate
[21] = Pseudomonas aeruginosa PA239, CDC AR isolate

| Compound | Antibiotic susceptibility profile [1] | Antibiotic susceptibility profile [2] | Antibiotic susceptibility profile [3] | Antibiotic susceptibility profile [4] | Antibiotic susceptibility profile [5] | Antibiotic susceptibility profile [6] | Antibiotic susceptibility profile [7] | Antibiotic susceptibility profile [9] | Antibiotic susceptibility profile [10] | Antibiotic susceptibility profile [11] | Antibiotic susceptibility profile [12] | Antibiotic susceptibility profile [13] | Antibiotic susceptibility profile [14] | Antibiotic susceptibility profile [15] | Antibiotic susceptibility profile [16] | Antibiotic susceptibility profile [17] | Antibiotic susceptibility profile [18] | Antibiotic susceptibility profile [19] | Antibiotic susceptibility profile [20] | Antibiotic susceptibility profile [21] | other results |
| --- | --- | --- | --- | --- | --- | --- | --- | --- | --- | --- | --- | --- | --- | --- | --- | --- | --- | --- | --- | --- | --- |
| NCC[C@H](O)C(=O)N[C@@H]1C[C@H](N)[C@@H](O[C@H]2O[C@H](CN)[C@@H](O)[C@H](O)[C@H]2O)[C@H](O)[C@H]1O[C@H]1O[C@H](CO)[C@@H](O)[C@H](N)[C@H]1O [Amikacin] | R | S | R | I | S | S | S | R | S | S | S | R | S | S | S | S | R | S | S | R | Antibiotic susceptibility profile [8]: R |
| C[C@H]1[C@H](NC(=O)/C(=N\OC(C)(C)C(=O)O)c2csc(N)n2)C(=O)N1S(=O)(=O)O [Azreonam] |  |  |  |  |  |  |  | R | R | R | R | R | R | R | R | R | S | R | S | R |  |
| CO/N=C(\C(=O)N[C@@H]1C(=O)N2C(C(=O)[O-])=C(C[N+]3(C)CCCC3)CS[C@H]12)c1csc(N)n1 [Cefepime] | R | R | R | R | S | R | R | R | R | R | R | R | R | R | R | R | R | R | S | R | Antibiotic susceptibility profile [8]: R |
| CO/N=C(\C(=O)N[C@@H]1C(=O)N2C(C(=O)O)=C(COC(C)=O)CS[C@H]12)c1csc(N)n1 [Cefotaxime] | R | R | R | R | R | R | R | R | R | R | R | R | R | R | R |  |  |  |  |  | Antibiotic susceptibility profile [8]: R |
| CO/N=C(\C(=O)N[C@@H]1C(=O)N2C(C(=O)O)=C(CSc3nc(=O)c(=O)[nH]n3C)CS[C@H]12)c1csc(N)n1 [Ceftriaxone] | R | R | R | R | R | R | R | R | R | R | R | R | R | R | R |  |  |  |  |  | Antibiotic susceptibility profile [8]: R |
| O=C(O)c1cn(C2CC2)c2cc(N3CCNCC3)c(F)cc2c1=O [Ciprofloxacin] | R | R | R | R |  |  |  |  |  |  |  |  |  |  |  | R | R | R | R | R |  |
| C[C@@H](O)[C@H]1C(=O)N2C(C(=O)O)=C(S[C@@H]3CN[C@H](CNS(N)(=O)=O)C3)[C@H](C)[C@H]12 [Doripenem] | R | R | R | R | S | R | S | S | I | R | R | I | R | R | R | R | R | R | S | R | Antibiotic susceptibility profile [8]: R |
| C[C@@H](O)[C@H]1C(=O)N2C(C(=O)O)=C(S[C@@H]3CN[C@H](C(=O)Nc4cccc(C(=O)O)c4)C3)[C@H](C)[C@H]12 [Ertapenem] |  |  |  |  | S |  | S | I | R | R | R | R | R | R | R |  |  |  |  |  |  |
| C[C@@H](O)[C@H]1C(=O)N2C(C(=O)O)=C(SCCN=CN)C[C@H]12 [Imipenem] | R | R | R | S | S | R | I | I | S | R | I | I | R | R | R | R | R | R | R | R | Antibiotic susceptibility profile [8]: R |
| CN(C)c1ccc(O)c2c1C[C@H]1C[C@H]3[C@H](N(C)C)C(O)=C(C(N)=O)C(=O)[C@@]3(O)C(O)=C1C2=O [Minocycline] | I | I | I | S |  |  |  |  |  |  |  |  |  |  |  |  |  |  |  |  |  |
| C/C(=C\C(=O)OCCCCCCCCC(=O)O)C[C@@H]1OC[C@H](C[C@@H]2O[C@H]2[C@@H](C)[C@H](C)O)[C@@H](O)[C@H]1O [Mupirocin] |  |  |  |  |  |  |  |  |  |  |  |  |  |  |  |  |  |  |  |  | Antibiotic susceptibility profile (Staphylococcus aureus SA561, CDC AR isolate): R |
| CN(C)c1cc(CNCC(C)(C)C)c(O)c2c1C[C@H]1C[C@H]3[C@H](N(C)C)C(O)=C(C(N)=O)C(=O)[C@@]3(O)C(O)=C1C2=O [Omadacycline] |  |  |  |  |  |  |  |  |  |  |  | R | R | R | S |  |  |  |  |  |  |
| CCN1CCN(C(=O)N[C@@H](C(=O)N[C@@H]2C(=O)N3[C@@H]2SC(C)(C)[C@@H]3C(=O)O)c2ccccc2)C(=O)C1=O [Piperacillin] | R | R | R | R |  |  |  |  |  |  |  |  |  |  |  | R | R | R | S | R |  |
